Literature values, collected in patent publication US9526785B2, “Pharmaceuticals for oral delivery” (Enteris BioPharma, Inc., priority 2013, dated 2016).

Conditions: reported; in humans; cited from earlier work

SMILES: CN(C)c1cc(NC(=O)CNC(C)(C)C)c(O)c2c1C[C@H]1C[C@H]3[C@H](N(C)C)C(O)=C(C(N)=O)C(=O)[C@@]3(O)C(O)=C1C2=O [Tigecycline]
- single dose half-life: approximately 20 hours
